Experimental data as given in ChEMBL document CHEMBL6109081, “Discovery and optimization of phenazopyridine hydrochloride as novel SARS-CoV-2 RdRp inhibitors” (Eur J Med Chem, 2025).
The source made the active and inactive calls. The rule behind the calls is not given here.

How the values were obtained:
[1] = molecular target: Replicase polyprotein 1ab (Severe acute respiratory syndrome coronavirus 2) (UniProt P0DTD1); assay: Inhibition of SARS-CoV-2 RdRp in HEK-293T cells at 10 uM measured after 24 hrs relative to control; assay type: cell-based
[2] = Cytotoxicity against HEK293T cells assessed as inhibition of cell growth measured after 48 hrs by CCK8 assay; assay type: toxicity, cell-based, HEK-293T; conditions: human
[3] = Antiviral activity against SARS-CoV-2 infected in HEK293T cells assessed as inhibition of SARS-CoV-2 RdRp in the presence of coelenterazine-h incubated for 24 hrs by Gaussia luciferase reporter assay; assay type: functional, cell-based; conditions: Homo sapiens, HEK-293T
[4] = Selectivity index, ratio of CC50 for cytotoxicity against HEK293T cells assessed as inhibition of cell growth to EC50 for antiviral activity against SARS-CoV-2 infected in HEK293T cells assessed as inhibition of SARS-CoV-2 RdRp; assay type: toxicity, cell-based; conditions: human, read-out: Ratio CC50/EC50
[5] = molecular target: T1, Replicase polyprotein 1ab (Severe acute respiratory syndrome coronavirus 2, UniProt P0DTD1); assay: Inhibition of his tagged SARS-CoV-2 nsp12 in HEK-293T cells cotransfected with pCoV-GLuc incubated for 24 hrs in the presence of coelenterazine-h by Gaussia luciferase reporter assay; assay type: cell-based
[6] = molecular target: Replicase polyprotein 1ab (Severe acute respiratory syndrome coronavirus 2) (UniProt P0DTD1); assay: (§1) Inhibition of SARS-CoV-2 RdRp mediated RNA synthesis in HEK-293T cells cotransfected with pCoV-GLuc and pCMV6-nsp12/nsp7/nsp8 assessed as reduction in plus strand RNA level at 10 uM by measuring GLuc RNA level for 24 hrs in the presence of coelenterazine-h by Gaussia luciferase reporter assay relative to control; assay type: cell-based
Human coronavirus OC43 [7] = assay: Antiviral activity against HCoV-OC43(Rluc) infected in BHK-21 cells assessed as inhibition of viral infection at 10 uM pre-infected with virus for 2 hrs followed by compound addition measured after 24 hrs by luciferase assay; assay type: functional, organism-based
SARS-CoV-2 = assay: Antiviral activity against SARS-CoV-2 C-Tan-n-CoV Wuhan infected in African green monkey Vero E6 cells assessed as inhibition of viral replication incubated for 24 hrs by qRT-PCR analysis; assay type: functional, organism-based; conditions: Severe acute respiratory syndrome coronavirus 2, C-Tan-n-CoV Wuhan, Vero C1008, 24 h
[8] = molecular target: T1, Replicase polyprotein 1ab; assay: Binding affinity to SARS-CoV-2 nsp12 expressed in Escherichia coli BL21 (DE3) cells using biotinylated EZ-link NHS-LC-LC assessed as dissociation constant incubated for 180 sec by BLI assay
Human coronavirus OC43 [9] = assay: Antiviral activity against HCoV-OC43(Rluc) infected in golden hamster BHK-21 cells assessed as inhibition of viral replication at 10 uM pre-infected with virus for 1 hrs followed by compound addition and measured after 24 hrs by luciferase assay; assay type: functional, organism-based
[10] = molecular target: Replicase polyprotein 1ab (Severe acute respiratory syndrome coronavirus 2) (UniProt P0DTD1); assay: Inhibition of SARS-CoV-2 3CLpro in HEK293T cells at 2 to 20 uM measured after 48 hrs by Western blot analysis; assay type: cell-based; conditions: dose 2-20 µM
[11] = molecular target: T1, Replicase polyprotein 1ab; assay: Inhibition of SARS-CoV-2 nsp14 in HEK-293T cells cotransfected with pCoV-GLuc incubated for 24 hrs in the presence of coelenterazine-h by Gaussia luciferase reporter assay; assay type: cell-based
Human coronavirus NL63 [12] = assay: Antiviral activity against HCoV-NL63 infected in Rhesus monkey LLC-MK2 cells at a MOI of 0.01 assessed as inhibition of viral replication measured after 120 hrs by MTS assay; assay type: functional, organism-based; conditions: Human coronavirus NL63, LLC-MK2, 120 h
Human coronavirus OC43 [13] = assay: Antiviral activity against HCoV-OC43 infected in human HCT-8 cells at a MOI of 0.1 assessed as inhibition of viral replication measured after 5 days by MTS assay; assay type: functional, organism-based; conditions: Betacoronavirus 1, HCT-8, 120 h
[14] = Cytotoxicity against human HCT-8 cells incubated for 48 hrs by CCK8 method; assay type: toxicity, cell-based
Human coronavirus OC43 [15] = assay: Antiviral activity against HCoV-OC43 infected in golden hamster BHK-21 cells assessed as inhibition of viral infection at 10 uM measured after 24 hrs by luciferase assay; assay type: functional, organism-based
[16] = molecular target: T1, Replicase polyprotein 1ab; assay: Binding affinity to SARS-CoV-2 nsp12 expressed in Escherichia coli BL21 (DE3) cells using biotinylated EZ-link NHS-LC-LC assessed as dissociation constant at 6.25 to 100 uM incubated for 180 sec by BLI assay
[17] = molecular target: Replicase polyprotein 1ab (Severe acute respiratory syndrome coronavirus 2) (UniProt P0DTD1); assay: Inhibition of SARS-CoV-2 RdRp mediated RNA synthesis in HEK-293T cells cotransfected with pCoV-GLuc and pCMV6-nsp12/nsp7/nsp8 assessed as reduction in plus strand RNA level by measuring GLuc RNA level for 24 hrs in the presence of coelenterazine-h by Gaussia luciferase reporter assay; assay type: cell-based; conditions: dose 2-10 µM
[18] = molecular target: Replicase polyprotein 1ab (Severe acute respiratory syndrome coronavirus 2) (UniProt P0DTD1); assay: Inhibition of SARS-CoV-2 RdRp mediated RNA synthesis in HEK-293T cells cotransfected with pCoV-GLuc and pCMV6-nsp12/nsp7/nsp8 assessed as reduction in minus strand RNA level by measuring GLuc RNA level for 24 hrs in the presence of coelenterazine-h by Gaussia luciferase reporter assay; assay type: cell-based; conditions: dose 2-10 µM
[19] = Cytotoxicity against Rhesus monkey LLC-MK2 cells incubated for 48 hrs by method; assay type: toxicity, cell-based, Macaca mulatta
Human coronavirus NL63 [20] = assay: Potency index, ratio of PAP EC50 to test compound EC50 for antiviral activity against HCoV-NL63 infected in Rhesus monkey LLC-MK2 cells assessed as reduction in viru-induced cytopathic effect measured after 120 hrs by MTS assay; assay type: functional
Human coronavirus OC43 [21] = assay: Potency index, ratio of PAP EC50 to test compound EC50 for antiviral activity against HCoV-OC43 infected in human HCT-8 cells assessed as reduction in virus-induced cytopathic effect measured after 120 hrs by MTS assay; assay type: functional
[22] = molecular target: Replicase polyprotein 1ab (Severe acute respiratory syndrome coronavirus 2) (UniProt P0DTD1); assay: as §1, with “minus” for “plus”; assay type: cell-based

## Nc1cc(Br)c(/N=N/c2ccccc2)c(N)n1
[1]
  inhibition: 41.9%

## Nc1ccc(/N=N/c2cccc3c2CCCC3)c(N)n1
[1]
  inhibition: 71.8%
[2]
  CC50 at 48 h: 78.9 µM
[3]
  EC50: 7.35 µM

## CSCC[C@H](N)C(=O)Nc1nc(N)ccc1/N=N/c1ccccc1
[1]
  inhibition: 55.3%
[2]
  CC50 at 48 h: > 100 µM
[3]
  EC50: 7.26 µM

## Nc1nc(N)c(/N=N/c2ccccc2)cc1Br
[1]
  inhibition: 51.1%
[2]
  CC50 at 48 h: > 100 µM
[3]
  EC50: 13.3 µM

## Nc1ccc(/N=N/c2ccc(OCc3ccccc3)cc2)c(N)n1
[1]
  inhibition: 65.3%
[2]
  CC50 at 48 h: > 100 µM
[3]
  EC50: 7.16 µM

## Oc1ccc(/N=N/c2ccccc2)cc1
[1]
  inhibition: 45.4%

## CN(C)c1ccc(/N=N/c2ccc(N)nc2N)cc1
[1]
  inhibition: 50.1%
[2]
  CC50 at 48 h: > 100 µM
[3]
  EC50: 9.52 µM

## Cl.Nc1ccc(/N=N/c2ccccc2)c(N)n1 [PHENAZOPYRIDINE HYDROCHLORIDE]
[4]
  selectivity ratio: > 13.6
[5]
  EC50: 7370 nM
[6]
  inhibition: 90%
Human coronavirus OC43 [7]
  inhibition: Active
[1]
  inhibition: 50%
SARS-CoV-2
  EC50: 5.37 µM
[8]
  Kd: Dose-dependent-effect
Human coronavirus OC43 [9]
  inhibition: Active; Minor Effects Was Observed
[2]
  CC50 at 48 h: > 100 µM
[3]
  EC50: 7.37 µM
[10]
  inhibition: inactive
[11]
  EC50: 8010 nM
Human coronavirus NL63 [12]
  EC50: 5520 nM
Human coronavirus OC43 [13]
  EC50: 4690 nM
[14]
  CC50 at 48 h: > 100 µM
Human coronavirus OC43 [15]
  inhibition: Active
[16]
  Kd: 5 µM
[17]
  inhibition: Dose-dependent-effect
[18]
  inhibition: Dose-dependent-effect
[19]
  CC50 at 48 h: > 100 µM

## NCC(=O)Nc1nc(N)ccc1/N=N/c1ccccc1
[1]
  inhibition: 52.4%
[2]
  CC50 at 48 h: > 100 µM
[3]
  EC50: 9.28 µM

## C[C@H](N)C(=O)Nc1nc(N)ccc1/N=N/c1ccccc1
[1]
  inhibition: 48.2%

## Nc1ccc(/N=N/c2ccccc2)c(NC(=O)[C@@H](N)Cc2c[nH]c3ccccc23)n1
[4]
  selectivity ratio: 50
[5]
  EC50: 1640 nM
[1]
  inhibition: 82.7%
[2]
  CC50 at 48 h: 81.9 µM
[3]
  EC50: 1.64 µM
[11]
  EC50: 1530 nM
[17]
  inhibition: Dose-dependent-effect
[18]
  inhibition: Dose-dependent-effect

## CC(C)(C)OC(=O)N1CCC[C@H]1C(=O)Nc1nc(N)ccc1/N=N/c1ccccc1
[4]
  selectivity ratio: 6.64
[5]
  EC50: 1110 nM
Human coronavirus NL63 [20]
  Ratio EC50: 1.85
[1]
  inhibition: 88.5%
Human coronavirus OC43 [21]
  Ratio EC50: 3.28
[8]
  Kd: Dose-dependent-effect
[2]
  CC50 at 48 h: > 100 µM
[3]
  EC50: 1.11 µM
[11]
  EC50: 1360 nM
Human coronavirus NL63 [12]
  EC50: 2990 nM
Human coronavirus OC43 [13]
  EC50: 1430 nM
[14]
  CC50 at 48 h: > 100 µM
[22]
  inhibition: 90%
[16]
  Kd: 2.41 µM
[17]
  inhibition: Dose-dependent-effect
[18]
  inhibition: Dose-dependent-effect
[19]
  CC50 at 48 h: > 100 µM

## Nc1ccc(/N=N/c2ccc(F)cc2)c(N)n1
[1]
  inhibition: 64.9%
[2]
  CC50 at 48 h: > 100 µM
[3]
  EC50: 8.73 µM

## CCC(CC)COC(=O)[C@H](C)N[P@](=O)(OC[C@H]1O[C@@](C#N)(c2ccc3c(N)ncnn23)[C@H](O)[C@@H]1O)Oc1ccccc1
[6]
  inhibition: 80%
[2]
  CC50 at 48 h: > 100 µM
Human coronavirus NL63 [12]
  EC50: 2670 nM
Human coronavirus OC43 [13]
  EC50: 1890 nM
[14]
  CC50 at 48 h: > 100 µM
[22]
  inhibition: 80%
[17]
  inhibition: Dose-dependent-effect
[18]
  inhibition: Dose-dependent-effect
[19]
  CC50 at 48 h: > 100 µM

## Cc1cc(N)nc(N)c1/N=N/c1ccccc1
[1]
  inhibition: 49.9%

## Nc1ccc(/N=N/c2ccc(Cc3ccccc3)cc2)c(N)n1
[1]
  inhibition: 59.3%
[2]
  CC50 at 48 h: > 100 µM
[3]
  EC50: 6.47 µM
